In paper PMC8286840, “Identifying SARS-CoV-2 antiviral compounds by screening for small molecule inhibitors of Nsp3 papain-like protease” (Biochemical Journal, 2021):
Where a name gives a salt, the structure may show the parent alone. Read-outs that look alike come from different tables or passages of the source.

What was measured:
[1] = molecular target: T1, SARS-CoV-2 PLpro (nsp3 1564–1878) (Severe acute respiratory syndrome coronavirus 2, UniProt P0DTD1); experiment: biochemical; set-up: FRET-quenched peptide (Pro3) cleavage by PLpro, 10 min pre-incubation, slope over 20 min, normalised to no-compound control; settings: low concentration screen, read-out: % of control remaining
[2] = molecular target: T1, SARS-CoV-2 PLpro (nsp3 1564–1878); experiment: biochemical; set-up: FRET-quenched peptide (Pro3) cleavage by PLpro, 10 min pre-incubation, slope over 20 min, normalised to no-compound control; settings: high concentration screen, read-out: % of control remaining

`Nc1nc(=O)[nH]cc1F` [Flucytosine (Ancobon)] showed a remaining activity at 1.25 µM ([1]; Well no.=5335) of 94.7% and a remaining activity at 3.75 µM ([2]; Well no.=5335) of 101%.
`Nc1nc(F)nc2c1ncn2[C@@H]1O[C@H](CO)[C@@H](O)[C@@H]1O` [Fludarabine (Fludara)] gave a remaining activity at 1.25 µM ([1]; Well no.=5249) of 98.3% and a remaining activity at 3.75 µM ([2]; Well no.=5249) of 99.9%.
With `Nc1nc(F)nc2c1ncn2[C@@H]1O[C@H](COP(=O)(O)O)[C@@H](O)[C@@H]1O` [Fludarabine (phosphate)] the remaining activity at 1.25 µM ([1]; Well no.=8046) was 95.8% and the remaining activity at 3.75 µM ([2]; Well no.=8046) was 98%.
Work on `Nc1nc(F)nc2c1ncn2[C@@H]1O[C@H](CO)[C@@H](O)[C@@H]1O` [Fludarabine] yielded a remaining activity at 1.25 µM ([1]; Well no.=7962) of 89.2% and a remaining activity at 3.75 µM ([2]; Well no.=7962) of 88.2%.
With `CC(=O)OCC(=O)[C@@]1(O)CC[C@H]2[C@@H]3CCC4=CC(=O)CC[C@]4(C)[C@@]3(F)[C@@H](O)C[C@@]21C` [Fludrocortisone acetate] the remaining activity at 1.25 µM ([1]; Well no.=5827) was 103% and the remaining activity at 3.75 µM ([2]; Well no.=5827) was 104%.
Work on `O=C(O)c1ccccc1Nc1cccc(C(F)(F)F)c1` [Flufenamic acid] yielded a remaining activity at 1.25 µM ([1]; Well no.=1639) of 104% and a remaining activity at 3.75 µM ([2]; Well no.=1639) of 105%.
Compound `CCOC(=O)c1ncn2c1CN(C)C(=O)c1cc(F)ccc1-2` [Flumazenil] has a remaining activity at 1.25 µM ([1]; Well no.=517) of 104%, a remaining activity at 1.25 µM ([1]; Well no.=1575) of 103% and a remaining activity at 3.75 µM ([2]; Well no.=517) of 106%. It also gave a remaining activity at 3.75 µM ([2]; Well no.=1575) of 102%.
Compound `CC1CCc2cc(F)cc3c(=O)c(C(=O)O)cn1c23` (centres unmarked) [Flumequine] has a remaining activity at 1.25 µM ([1]; Well no.=5032) of 96.8% and a remaining activity at 3.75 µM ([2]; Well no.=5032) of 97.6%.
Work on `Cc1c(Nc2ncccc2C(=O)O)cccc1C(F)(F)F` [Flunixin meglumin] yielded a remaining activity at 1.25 µM ([1]; Well no.=5094) of 103% and a remaining activity at 3.75 µM ([2]; Well no.=5094) of 108%.
Work on `CC1(C)O[C@@H]2C[C@H]3[C@@H]4C[C@H](F)C5=CC(=O)C=C[C@]5(C)[C@@]4(F)[C@@H](O)C[C@]3(C)[C@]2(C(=O)CO)O1` [Fluocinolone (Acetonide)] yielded a remaining activity at 1.25 µM ([1]; Well no.=6667) of 108% and a remaining activity at 3.75 µM ([2]; Well no.=6667) of 111%.
`CC1(C)O[C@@H]2C[C@H]3[C@@H]4C[C@H](F)C5=CC(=O)C=C[C@]5(C)[C@@]4(F)[C@@H](O)C[C@]3(C)[C@]2(C(=O)CO)O1` [Fluocinolone acetonide] was tested, and the remaining activity at 1.25 µM ([1]; Well no.=2126) was 97.3% and the remaining activity at 3.75 µM ([2]; Well no.=2126) was 98.4%.
Work on `CC(=O)OCC(=O)[C@@]12OC(C)(C)O[C@@H]1C[C@H]1[C@@H]3C[C@H](F)C4=CC(=O)C=C[C@]4(C)[C@@]3(F)[C@@H](O)C[C@@]12C` [Fluocinonide] yielded a remaining activity at 1.25 µM ([1]; Well no.=6805) of 98.5% and a remaining activity at 3.75 µM ([2]; Well no.=6805) of 99.9%.
In the case of `CNCCC(Oc1ccc(C(F)(F)F)cc1)c1ccccc1` (centres unmarked) [Fluoxetine hydrochloride], the remaining activity at 1.25 µM ([1]; Well no.=761) is reported as 95.3% and the remaining activity at 3.75 µM ([2]; Well no.=761) is reported as 93.4%.
Work on `CNCCC(Oc1ccc(C(F)(F)F)cc1)c1ccccc1` (centres unmarked) [Fluoxetine] yielded a remaining activity at 1.25 µM ([1]; Well no.=2102) of 96.6% and a remaining activity at 3.75 µM ([2]; Well no.=2102) of 98.8%.
`CN1CCN(C2=Nc3cc(F)ccc3Cc3ccccc32)CC1` [Fluperlapine] was tested, and the remaining activity at 1.25 µM ([1]; Well no.=2100) was 101% and the remaining activity at 3.75 µM ([2]; Well no.=2100) was 98.8%.
`CCOC(=O)Nc1ccc(NCc2ccc(F)cc2)nc1N` [Flupirtine maleate] gave a remaining activity at 1.25 µM ([1]; Well no.=711) of 95.7% and a remaining activity at 3.75 µM ([2]; Well no.=711) of 90.6%.
In the case of `CC(C(=O)O)c1ccc(-c2ccccc2)c(F)c1` (centres unmarked) [Flurbiprofen], the remaining activity at 1.25 µM ([1]; Well no.=2118) is reported as 99.6% and the remaining activity at 3.75 µM ([2]; Well no.=2118) is reported as 101%.
In the case of `O=C1NCN(c2ccccc2)C12CCN(CCCC(c1ccc(F)cc1)c1ccc(F)cc1)CC2` [Fluspirilene], the remaining activity at 1.25 µM ([1]; Well no.=569) is reported as 98.4%, the remaining activity at 3.75 µM ([2]; Well no.=569) is reported as 97.3% and the remaining activity at 3.75 µM ([2]; Well no.=1599) is reported as 98.9%.
`CC(C)C(=O)Nc1ccc([N+](=O)[O-])c(C(F)(F)F)c1` [Flutamide] gave a remaining activity at 1.25 µM ([1]; Well no.=759) of 90.8%, a remaining activity at 1.25 µM ([1]; Well no.=2130) of 93% and a remaining activity at 3.75 µM ([2]; Well no.=759) of 97.8%. The remaining activity at 3.75 µM ([2]; Well no.=2130) was 95%.
In the case of `CCC(=O)O[C@]1(C(=O)SCF)[C@H](C)C[C@H]2[C@@H]3C[C@H](F)C4=CC(=O)C=C[C@]4(C)[C@@]3(F)[C@@H](O)C[C@@]21C` [Fluticasone (propionate)], the remaining activity at 1.25 µM ([1]; Well no.=7515) is reported as 98.2% and the remaining activity at 3.75 µM ([2]; Well no.=7515) is reported as 97.6%.
`CC(C)n1c(/C=C/[C@@H](O)C[C@@H](O)CC(=O)O)c(-c2ccc(F)cc2)c2ccccc21` [Fluvastatin sodium (Lescol)] was tested, and the remaining activity at 1.25 µM ([1]; Well no.=4998) was 106% and the remaining activity at 3.75 µM ([2]; Well no.=4998) was 102%.
`CC(C)n1c(/C=C/[C@H](O)C[C@H](O)CC(=O)O)c(-c2ccc(F)cc2)c2ccccc21` [Fluvastatin] was tested, and the remaining activity at 1.25 µM ([1]; Well no.=1902) was 97.7% and the remaining activity at 3.75 µM ([2]; Well no.=1902) was 98.9%.
`COCCCC/C(=N\OCCN)c1ccc(C(F)(F)F)cc1` [Fluvoxamine maleate] was tested, and the remaining activity at 1.25 µM ([1]; Well no.=467) was 95.7% and the remaining activity at 3.75 µM ([2]; Well no.=467) was 96.4%.
Compound `C[C@@H](C(=O)O)N(C)C(=O)OCC1c2ccccc2-c2ccccc21` [Fmoc-N-Me-Ala-OH] has a remaining activity at 1.25 µM ([1]; Well no.=7976) of 91.3% and a remaining activity at 3.75 µM ([2]; Well no.=7976) of 92.8%.
For `CC(C)C[C@@H](C(=O)O)N(C)C(=O)OCC1c2ccccc2-c2ccccc21` [Fmoc-N-Me-Leu-OH], the remaining activity at 1.25 µM ([1]; Well no.=7972) was 92.7% and the remaining activity at 3.75 µM ([2]; Well no.=7972) was 94.1%.
`CN(C(=O)OCC1c2ccccc2-c2ccccc21)[C@@H](Cc1ccccc1)C(=O)O` [Fmoc-N-Me-Phe-OH] showed a remaining activity at 1.25 µM ([1]; Well no.=7888) of 101% and a remaining activity at 3.75 µM ([2]; Well no.=7888) of 102%.
For `Nc1nc(=O)c2nc(CNc3ccc(C(=O)N[C@@H](CCC(=O)O)C(=O)O)cc3)cnc2[nH]1` [Folic acid], the remaining activity at 1.25 µM ([1]; Well no.=7300) was 97.8% and the remaining activity at 3.75 µM ([2]; Well no.=7300) was 96.1%.
With `COc1cc(=O)n(C)c2c(OCC(O)C(C)(C)O)cccc12` (centres unmarked) [Foliosidine] the remaining activity at 1.25 µM ([1]; Well no.=565) was 104% and the remaining activity at 3.75 µM ([2]; Well no.=565) was 97.8%.
With `C[C@]12CCC(=O)C(O)=C1CC[C@@H]1[C@@H]2CC[C@]2(C)C(=O)CC[C@@H]12` [Formestane] the remaining activity at 1.25 µM ([1]; Well no.=2134) was 99.1% and the remaining activity at 3.75 µM ([2]; Well no.=2134) was 101%.
Work on `COc1ccc(-c2coc3cc(O)ccc3c2=O)cc1` [Formononetin] yielded a remaining activity at 1.25 µM ([1]; Well no.=3611) of 96.9% and a remaining activity at 3.75 µM ([2]; Well no.=3611) of 96.2%.
Compound `COc1ccc(C[C@H](C)NC[C@@H](O)c2ccc(O)c(NC=O)c2)cc1` [Formoterol (Fumarate)] has a remaining activity at 1.25 µM ([1]; Well no.=6413) of 101% and a remaining activity at 3.75 µM ([2]; Well no.=6413) of 95.1%.
`COc1ccc(C[C@@H](C)NC[C@H](O)c2ccc(O)c(NC=O)c2)cc1` [Formoterol hemifumarate] gave a remaining activity at 1.25 µM ([1]; Well no.=5014) of 109% and a remaining activity at 3.75 µM ([2]; Well no.=5014) of 104%.
Work on `COc1ccc(C[C@@H](C)NC[C@H](O)c2ccc(O)c(NC=O)c2)cc1` [Formoterol] yielded a remaining activity at 1.25 µM ([1]; Well no.=473) of 101% and a remaining activity at 3.75 µM ([2]; Well no.=473) of 99.6%.
